In PMC5481357, “Characterization of Three L-Asparaginases from Maritime Pine (Pinus pinaster Ait.)” (Frontiers in Plant Science, 2017):

Assays:
Assay in all cases: GOT/MDH-coupled aspartate release, NADH oxidation; Hanes-Woolf
Format in all cases: biochemical, Pinus pinaster
Settings in all cases: 50 mM HEPES pH 7.8, 50 mM KCl
PpASPG1 [1] = test system: T1, PpASPG1
T1 construct: full ORF (1128 nt, 375 residues incl. 77-residue variable loop), expressed in Nicotiana benthamiana; conventional purification, untagged by the measured beta mass; autocleaved before Thr245 into alpha (26,431 Da, Met1 removed) and beta (13,325 Da); plant ASPG (alpha beta)2
Source text: GOT/MDH-coupled aspartate release, NADH oxidation; Hanes-Woolf on […]1 | changes in the Km and Vmax values for L-Asn and β-L-Asp-L-Ala (Supplementary Table S3)

PpASPG1 [2] = test system: T1, PpASPG1; remark: listed apart in the source
PpASPG3 = test system: T2, PpASPG3
T2 construct: full ORF (918 nt, 305 residues) with C-terminal HA and poly-His tag, expressed in Nicotiana benthamiana, Ni-TED purified; partly processed into alpha and beta subunits

Row | Km (PpASPG1 [1]; deletion variant with C-terminal HA and poly-His tag, partly unprocessed precursor) | Km (PpASPG1 [2]) | Km (PpASPG3) | Km (PpASPG1 [1]) | SMILES
1 | 7.16 ± 0.88 mM | 4.58 ± 0.03 mM | 6.12 ± 0.96 mM | – | NC(=O)C[C@H](N)C(=O)O [L-Asn]
2 | – | 56.7 ± 13.9 mM | 1.04 ± 0.21 mM | 9.44 ± 0.82 mM | C[C@H](NC(=O)C[C@H](N)C(=O)O)C(=O)O [β-L-Asp-L-Ala]
